Values joined by “and” are separate entries in the source; they are usually repeats but may differ in a detail not shown here. Equal values may be shown once. Ends that are not written are not given here.
Assays:
[1] = tested on: free DNA in plasma (biomarker for NETs); assay: Plasma free DNA by PicoGreen in CLP rats; type: in vivo, rat; conditions: single dose RLS-0071, 24 hours post-surgery
Description: (§1) Blood samples were collected before surgery (pre-bleed) and 24 hours after surgery. Plasma was isolated from the blood and analyzed for free DNA concentration and cytokines levels as described below.
Free DNA was measured by PicoGreen in rat plasma samples as previously described Briefly, plasma samples were diluted in 10 mM Tris-HCl, 1 mM EDTA, pH 8.0 (TE) buffer and 50 uL of each sample was added to the wells along with 50 uL of a 1:200 dilution of PicoGreen (Life Technologies, Carlsbad, CA, USA) and incubated at room temperature for 10 minutes, protected from light. A DNA standard curve was prepared in TE buffer. The fluorescence was then read at an excitation wavelength of 485 nm and an emission wavelength of 520 nm using a BioTek microplate reader. All free DNA measurements were done in triplicate.

[2] = tested on: cecal ligation and puncture (CLP) rat model of intestinal necrosis; assay: Cecal ligation and puncture (CLP) survival model; type: in vivo; conditions: for survival, multi-dose regimen: CLP rats, 40 mg/kg at 0.5, 24, 48 and 72 hours after surgery
Description: The previously established CLP model was utilized with modifications. Male Long-Evans rats (250-300 grams) were induced using 5% isoflurane with oxygen and anesthesia was maintained by isoflurane delivered via nose cone at 1.5-2% with oxygen. Adequate anesthesia was confirmed with a toe pinch. The surgical area (lower abdominal quadrants) was shaved, cleaned with 10% iodine and subsequently cleaned with 70% ethanol for a total of three times. For pain management, buprenorphine-SR (1 mg/kg) was given subcutaneously pre-op. For the surgical procedure, animals were in the supine position with their heads oriented away from the operator. After placing a sterile drape, a longitudinal midline incision (approximately 3-4 cm) was made with a sterile scalpel. After the initial incision, small scissors were used to enter the peritoneal cavity. The linea alba of the abdominal musculature was dissected away for intermuscular incision of fascial and peritoneal layers. The cecum was located and exteriorized, the remainder of the bowel was left in the peritoneal cavity. The mesentery of the cecum was dissected away with care taken to avoid damage to the cecal branch of the ileocecal artery and avoid bleeding complications. The cecum was ligated at 75% using sterile 3-0 non-absorbable suture. The cecum was perforated twice by through-and-through punctures using a sterile 18-gauge needle midway between the ligation and the tip of the cecum in a mesenteric-to-antimesenteric direction. The cecum was relocated into the abdominal cavity. The peritoneum was closed using 4-0 non-absorbable sutures and the skin was closed with sterile metallic wound clips. The animals received 5 mL of prewarmed (37° C.) normal saline subcutaneously for recovery. […] The peptide, consisting of the amino acid sequence […] (SEQ ID NO: 2) with a monodisperse, 24mer polyethylene glycol (PEG) tail, was manufactured by PolyPeptide Group (San Diego, CA) to >95% purity as verified by HPLC and mass spectrometry analysis. Lyophilized RLS-0071 was solubilized in 0.05 M Histidine buffer and pH adjusted to 6.5. […] Animals were monitored every 30 minutes for at least two hours post-surgery. Once bright, alert, and responsive, the animals were placed back into their home cage. A quantitative assessment of morbidity was conducted on the animals twice a day for the duration of the study. (Shrum, B., Anantha, R. V., Xu, S. X. et al. A robust scoring system to evaluate sepsis severity in an animal model. BMC Res Notes 7, 233 (2014). https://doi.org/10.1186/1756-0500-7-233). Scoring criteria included appearance, level of consciousness, activity, response to stimulus, eyes open vs. closed, respiration rate and respiration quality. […] The animals were subsequently monitored at a minimum of twice/day. […]

[3] = tested on: complement system; conditions: previously demonstrated in vitro assays; cited from earlier work
[4] = tested on: IL-6; assay: Plasma IL-6 ELISA in CLP rats; type: in vivo, rat; conditions: single dose RLS-0071, 24 hours post-surgery
Description: as §1
The Rat IL-6 ELISA was purchased from R&D Systems. Plasma samples from experimental animals were run according to the manufacturer's instructions. Briefly, diluted rat plasma samples were added to wells pre-coated with capture IL-6 antibodies overnight. The plate was blocked for 60 min at room temperature with 1% BSA. 100 uL of plasma samples (diluted 1:4) or standards was added to the plate and incubated at room temperature for 2 hrs, then any unbound components were removed by washing. Next, 100 μL of detection IL-6 antibody (diluted 1:60) was added and incubated for 2 hrs at room temperature and washed. Next, 100 μL of streptavidin-horseradish peroxidase (HIRP) conjugate (diluted 1:40) was added and incubated in the dark for 20 minutes at room temperature. Following washing, 100 μL of 3,3′,5,5′-tetramethylbenzidine (TMB) substrate was added for approximately 5 minutes at room temperature. The reaction was stopped with the addition of 100 μL of sulfuric acid and absorbance measured at 450 nm using a BioTek microplate reader. Sample concentrations were calculated using an IL-6 standard curve made with 1:2 serial dilutions.

Substance | level of free DNA in blood compared to animals not receiving treatment [1] | survival, multi-dose regimen [2] | survival ([2]; male Long-Evans rats, 75% CLP, single dose 40 mg/kg i.v. 30 minutes after surgery, assessed up to 5 days, 40 mg/kg) | increase in survival compared to no-rescue treatment group ([2]; single dose 40 mg/kg i.v. 30 minutes after surgery) [fold] | inhibition of the complement system [3] | IL-6 level in blood compared with no-rescue-intervention animals [4]
IALILEPICCQERAA-PEG24 (IALILEPICCQERAA-dPEG24; cysteine pairing not given here) [RLS-0071, 15 amino acid peptide with a C-terminal monodisperse 24-mer PEGylated moiety] | reduction in the level of free DNA | significant increase in survival | 80% and 50% | 2.5 | strong inhibition of the complement system | reduction in IL-6
IALILEP(Sar)CCQERAA (IALILEPXCCQERAA; sarcosine at position 8; MOD_RES (8)..(8) Sarcosine) [RLS-0088, PA peptide with isoleucine at position 8 replaced by sarcosine] |  | increase in survival |  |  |  | 

— patent publication US20240209036A1, “PEPTIDES AND METHODS OF USE” (priority 2021, published 2024)
